# “Also recorded” adds a separate entry of the source.
# Key:
# [1] = LAL assay, LPS neutralization; format: biochemical, Escherichia coli; settings: 2.4 to 19.25 μM peptide; E. coli 011:B4 LPS 2 EU/mL; 30 min, 37 °C
# Protocol: The ability of lin-SB056-1 and (lin-SB056-1)2-K to neutralize the activity of LPS was analyzed using a standardized LAL assay (Pierce LAL chromogenic endotoxin quantitation kit; Thermo Fisher Scientific). Peptides at different concentrations (2.4 to 19.25 μM) were pre-incubated with E. coli 011:B4 LPS (2 Endotoxin Units (EU)/mL; EU = unit of measurement for endotoxin activity) for 30 min (37 °C, shaking) in order to promote the interaction between the two molecules. LPS alone was used as positive control. Following incubation, peptide-treated and untreated samples were mixed with the LAL reagent (1:1 ratio) and incubated for 10 min at 37 °C. Subsequently, 100 μL of the chromogenic substrate were added and incubated with the samples for 6 min. The reaction was terminated by adding 100 μL of acetic acid (25% v/v), and absorbance was measured at 405 nm ([…]) using a microplate reader (Multiscan FC, Life Technologies Italia, Monza, Italy). The amount of peptide-sequestered LPS was determined as follows: LPS neutralization (%) = [100 − (ODpeptide/ODpositive control × 100)].
# A549 cells [2] = assay: LPS-induced cytokine production by A549 cells (bead-based multiplex immunoassay); format: cell-based, Human; settings: LPS 800 ng/mL, 4 h, 37 °C, peptide 4.8 to 19.25 μM
# Protocol: (§1) Human non-small-cell lung adenocarcinoma A549 cells (ATCC CCL-185; LGC Standards, Milan, Italy) and human monocytic THP-1 cells (ATCC TIB-202; LGC Standards) were cultured in tissue culture flasks in Dulbecco’s modified essential medium (DMEM) (Euroclone, Milan, Italy) and RPMI 1640 medium (Euroclone), respectively. Both media were supplemented with 2 mM L-glutamine (Euroclone) and 10% heat-inactivated fetal bovine serum (FBS; Euroclone). Confluent monolayers were detached from the culture flask with 0.25% trypsin/1 mM EDTA solution (Euroclone), suspended in complete culture medium and seeded into flat-bottom 96-well plates at a final density of 1 × 10^4 cells/well (A549) and 2 × 10^4 cells/well (THP-1). A549 cells were cultured for 24 h at 37 °C, 5% CO2 in order to allow adhesion and formation of semi-confluent monolayers. THP-1 cells were cultured for 3 days (37 °C, 5% CO2) in the presence of 100 nM TPA (Sigma-Aldrich, St. Louis, MO, USA) to induce their differentiation into macrophage-like cells.
# The anti-inflammatory potential of lin-SB056-1 and (lin-SB056-1)2-K was assessed by evaluating their ability to reduce LPS-induced production of pro-inflammatory cytokines by A549 cells and THP-1 macrophages. In order to ensure cytokine production, cell monolayers were stimulated with LPS from P. aeruginosa serotype 10 (purified by phenol extraction; Sigma-Aldrich, Milano, Italy) at a final concentration of 10 ng/mL (THP-1) and 800 ng/mL (A549). LPS concentrations used in the experiments were chosen based on preliminary assays aimed at identifying the minimum dose of the molecule able to stimulate cytokine production after 4 h of exposure. In order to assess the inhibitory activity of peptides on cytokine production, cell monolayers were incubated in complete culture medium in the presence of LPS and different concentrations of lin-SB056-1 and (lin-SB056-1)2-K (4.8 to 19.25 μM) for 4 h (37 °C, 5% CO2). Cells incubated in the presence of LPS alone were used as positive (cytokine production) control. Following incubation, cell culture supernatants were collected, filter sterilized (0.22 µm) and employed for the quantification of cytokines and the assessment of cell viability.
# Different pro-inflammatory cytokines (i.e., IL-1β, IL-6, IL-8 and TNF-α) were quantified in cell culture supernatants through a bead-based multiplex immunoassay (LEGENDplex multi-analyte flow assay kit; BioLegend, San Diego, CA, USA) following manufacturer’s instructions. Briefly, 25 μL of cytokine standard or cell supernatant were incubated with 25 μL of anti-cytokine conjugated beads into V-bottom 96-well plates for 2 h. Following incubation, the plates were washed and subsequently incubated with the detection antibody (25 μL/well) for 1 h. A volume of 25 μL of streptavidin-phycoerythrin was added to each well, and the plates were incubated for another 30 min in the dark. Following consecutive washing steps, the beads were resuspended in the LEGENDplex wash buffer and the samples were analyzed by flow cytometry (BD Accuri C6 flow cytometer; BD Biosciences, Mountain View, CA, United States). Data were acquired with the BD Accuri C6 software (BD Biosciences) (300 events per analyte) and analyzed with the LEGENDplex software (BioLegend). Minimum detectable concentration (MDC+2STDEV) for the tested cytokines were as follows: IL-1β, 0.65 + 0.47 pg/mL; IL-6, 0.97 + 1.46 pg/mL; IL-8, 1.90 + 0.65 pg/mL; TNF-α, 0.88 + 0.27 pg/mL.
# mammalian cells = settings: cited from earlier work
# Excerpt: (§2) The global issue of anti-microbial resistance coupled with the lack of new treatments for bacterial infections has stimulated interest in the use of AMPs for therapeutic purposes. Due to their unique mechanism(s) of action and wide spectrum of biological activities, AMPs are emerging as a promising alternative to conventional anti-microbial agents for the management of antibiotic-resistant and biofilm-associated infections. Although mainly intended for topical use due to potential toxicity and reduced stability under physiological conditions, many different peptides with anti-micro ...
# P. aeruginosa = settings: previous studies; cited from earlier work
# Excerpt: as §2
# A549 cells [3] = assay: Cytotoxicity (LDH release) towards A549 cells; format: cell-based, Human; settings: LPS-stimulated A549, 4 h
# Protocol: as §1
# (§3) The cytotoxicity of lin-SB056-1 and (lin-SB056-1)2-K towards A549 and THP-1 cells was evaluated to exclude a possible correlation between reduction in cytokine levels and decrease in cell numbers. To this end, culture supernatants of cells stimulated with LPS in the presence of the peptides were employed to quantify the amount of cytoplasmic LDH released by dead cells. Cells incubated in culture medium alone or in the presence of LPS served as an indication of spontaneous cell death (cell viability controls), while cells treated with a commercial lysis buffer (Pierce LDH cytotoxicity assay kit, Thermo Fisher Scientific) were used as cell death control (100% cell lysis). The enzymatic activity of LDH in cell supernatants was measured using the Pierce LDH cytotoxicity assay kit (Thermo Fisher Scientific) following manufacturer’s instructions. The cytotoxic effect was determined as follows: cytotoxicity (%) = [(LDH activity of A/LDH activity of B) × 100], where A represents peptide-treated or untreated cells (both in the presence and absence of LPS), and B corresponds to the cell lysis control.
# THP-1 macrophages = assay: Cytotoxicity (LDH release) towards THP-1 macrophages; format: cell-based, Human; settings: LPS-stimulated THP-1 macrophages, 4 h
# Protocol: as §1, §3
# [4] = BODIPY TR cadaverine (BC) fluorescent displacement assay, LPS binding; parameters: species or system P. aeruginosa; settings: P. aeruginosa serotype 10 LPS 10 µg/mL, BC 10 µM; 50 mM Tris-HCl, pH 7.4; 25 °C; excitation 580 nm, emission 620 nm; mean of three independent experiments, SD not exceeding 5%
# Protocol: Measurement of the ability of lin-SB056-1 and its dendrimeric derivative to bind P. aeruginosa serotype 10 LPS (Sigma-Aldrich) in vitro was performed by a fluorescent displacement assay using the BODIPY TR cadaverine (BC) probe (5-(((4-(4,4-difluoro-5-(2-thienyl)-4-bora-3a,4a-diaza-s-indacene-3-yl)phenoxy)acetyl)amino)pentylamine, hydrochloride); Thermo Fisher Scientific), as described elsewhere. BC binds to LPS by recognizing the lipid A portion and the probe fluorescence is quenched. When a peptide able to interact with LPS is added, BC is displaced from the complex and its fluorescence increases. LPS binding assays were carried out in 50 mM Tris-HCl buffer, pH 7.4. Aliquots of the peptides at a final concentration of 0.1 μM were successively added to a cuvette containing the LPS/BC complex (10 µg/mL P. aeruginosa LPS and 10 µM BC). Fluorescence measurements were performed with a Perkin-Elmer LS 55B spectrofluorometer (Perkin-Elmer, Waltham, MA, USA) using a thermostated (25 °C) cuvette apparatus (excitation: 580 nm; emission: 620 nm).
# [5] = in vitro; cited from earlier work
# Excerpt: While the anti-microbial activities of AMPs are becoming increasingly understood, the mechanisms underlying their anti-inflammatory effect still need to be fully elucidated. Nevertheless, the anti-inflammatory mode of action of many peptides has been attributed to their ability to efficiently bind LPS and/or block LPS recognition by effector cells. […] Analogous LPS-ne ... || It is generally thought that the dendrimeric architecture leads to improved biological activity due to a higher local concentration of the active sequence. Possibly, thanks to its conformational plasticity, the dendrimeric organization might maximize target binding (e.g., LPS) through electrostatic interactions, leading to greater biological effects. Nevertheless, we cannot exclude a role of stability on the ability of dendrimeric peptides to establish solid interactions with LPS under specific experimental conditions. For instance, the stronger LPS-binding affinity of (lin-SB056-1 ...
# sepsis in animal models = settings: by sequestering soluble LPS; cited from earlier work
# Excerpt: While the anti-microbial activities of AMPs are becoming increasingly understood, the mechanisms underlying their anti-inflammatory effect still need to be fully elucidated. Nevertheless, the anti-inflammatory mode of action of many peptides has been attributed to their ability to efficiently bind LPS and/or block LPS recognition by effector cells. […] Analogous LPS-ne ...
# [6] = up to 19.25 μM (highest tested), 37 °C, 5% CO2, relative to cell lysis control, at least three independent experiments
Substance,LPS neutralization / LAL activity [1],effect on IL-6 release (A549 cells [2]),effect on IL-8 release (A549 cells [2]; lin-SB056-1 decrease at 19.25 μM (highest tested)),cytotoxicity (mammalian cells),anti-microbial / anti-biofilm activity (P. aeruginosa),"cell death (LDH release), with LPS (A549 cells [3]; [6])","toxicity (A549 cells [3]; up to 19.25 μM, LDH release)","cell death (LDH release), with LPS (THP-1 macrophages; [6])","toxicity (THP-1 macrophages; up to 19.25 μM, LDH release)",ED50 (Effective Displacement; peptide concentration displacing half of the BC) [4] [nM],LPS-induced pro-inflammatory responses [5],protection from sepsis (sepsis in animal models)
"KWKIRVRLSA-NH2 [lin-SB056-1, semi-synthetic peptide lin-SB056-1]",differently from lin-SB056-1,only a decrease in IL-8 levels was recorded,decrease in IL-8 levels,low cytotoxicity,effective against biofilms; also recorded: promising anti-microbial activity,less than 5%,no detectable toxicity,less than 5%,no detectable toxicity,~1750,–,–
"LL-37: well-known human cathelicidin LL-37 (LLGDFFRKSKEKIGKEFKRIVQRIKDFLRNLVPRTES; Antibacterial peptide LL-37; UniProt P49913 134-170, looked up)",–,–,–,–,–,–,–,–,–,–,suppress LPS-induced pro-inflammatory responses,protect from sepsis

# Source: PMC7557804, “The Anti-Microbial Peptide (Lin-SB056-1)2-K Reduces Pro-Inflammatory Cytokine Release through Interaction with Pseudomonas aeruginosa Lipopolysaccharide” (Antibiotics, 2020)
